In patent US20060263830A1, “Interfacial biomaterials” (priority 2001, published 2006):

How the values were obtained:
[1] = AFM pull-off force measurements on polystyrene; type: binding; settings: peptide on gold-coated AFM cantilever, PBS buffer, 300 nm/sec
From the text: The adhesion strength and mode of binding are both IFBM and substrate dependent. To characterize and quantify the adhesion forces between IFBMs and synthetic and biological substrates, a state-of-the-art force spectrometer that employs a high precision, piezo driven flexure stage equipped with a capacitive displacement sensor with a position resolution of about 0.5 nm was used. A polystyrene binding peptide from the X6YX6 peptide library was used (a cysteine-terminated peptide containing the polystyrene-binding domain in the forward direction; CGSSLVGLHSYWSSPFF; SEQ ID NO:117). The cysteine-terminated peptides were then linked to a gold-coated atomic force microscope (AFM) cantilever by incubating the cantilever in a solution of the peptide (1 mg/ml). Pull-off force measurements were carried out in PBS buffer solution on a MultiMode AFM (Digital Instruments, now Veeco Instruments, Inc., Woodbury, N.Y., United States of America) by repeatedly engaging a polystyrene surface with the modified cantilever tip at a speed of 300 nm/sec. The mean adhesion force for the peptide was approximately 300 pN.

[2] = system: human umbilical vein endothelial cells (HUVECs); test: HUVEC adhesion to IFBM-coated polystyrene; type: cell-based
Protocol: (§1) First, a 1.0 mg/ml solution of FFPYSHLGVLSSG-PEG (SEQ ID NO:104) was prepared in water. The solution was added to the wells of a 96 well polystyrene culture plate and incubated at 50° C. overnight. The wells were then washed twice with PBS before seeding with 300 μl of either cell type. Human fibroblast and endothelial cells were also seeded on untreated polystyrene (N=3) and peptide (non-pegylated) coated polystyrene (N=3). After overnight incubation at 37° C., the wells were washed 5 times in excess PBS, then fixed in ethanol and stained with eosin Y for cell counting and optical microscopy. Both NHDF and HUVEC cells lose their rounded morphology, spread, and adhere to the untreated control plastic. At higher magnification, marked membrane ruffling is evident.

[3] = system: adult human dermal fibroblasts (NHDFs); test: NHDF adhesion to IFBM-coated polystyrene; type: cell-based
Protocol: as §1

[4] = system: human umbilical vein endothelial cells (HUVECs); test: HUVEC adhesion and spreading on binding-agent-coated polystyrene wells; type: cell-based; settings: 25 mg/mL coating; light microscopy after 1-hour, 2-hour or overnight culture; vs polystyrene-binding peptide lacking cell-binding domain or uncoated
Protocol: A 25 mg/mL solution was prepared using a binding agent comprising the peptide sequence RGDFLSFVFPASAWGG (SEQ ID NO:72) in a mixture of 90 parts PBS pH 7.4 and 10 parts DMSO. Fifty (50) μl of the binding agent solution was to each of three wells of a 96-well polystyrene microtiter plate for a duration of 1 hour. In another 3 wells, 50 μl of a control peptide 25 mg/ml fluorescein-labeled FLSFVFPASAWGG (SEQ ID NO:1) was added. The wells were washed three times with PBS and non-specific protein binding sites were blocked with sterile-filtered BSA (3% in PBS) for 30 minutes with shaking at 25 rpm. […] Following 4 washes with PBS, human umbilical vein endothelial cells (HUVECs) in supplemented EBM media were seeded onto each well. Cell adhesion and spreading was monitored by light microscopy following a 1-hour, 2-hour, or overnight culture.

Human chondrocytes = test: Cell panning of phage library on chondrocytes; type: cell-based; settings: phage-displayed peptide
From the text: The SCX16S library (described in Example 1) was screened for binding to chondrocytes. The peptides of the library were of the format SCX16S, including 16 central random amino acids, terminal fixed serines and a single cysteine residue.
Human chondrocytes were obtained from Clonetics, Inc. (San Diego, Calif., United States of America) and grown to confluency on one well of a polystyrene 6-well plate in supplemented F-12 media (Sigma-Aldrich Corp., St. Louis, Mo., United States of America). The entire cell panning procedure was free of detergent. The library was pre-cleared of phage that specifically or non-specifically bind polystyrene by incubating phage in polystyrene wells for two hours prior to addition to the cellular target. In each round, nonspecific binding sites were blocked using 5% dry milk in PBS. Phage were detected, isolated, amplified, and sequenced as described in Example 2. A representative peptide has the sequence SCSVYDHKIGRDSFYSGCS (SEQ ID NO:101). A representative peptide also has a preference for chondrocytes greater than 10 fold over endothelial cells.

[5] = Phage panning and ELISA for binding to polyurethane; settings: phage-displayed peptide, SCX16S library
Protocol: To detect phage that specifically bound to titanium, conventional ELISAs were performed using an anti-M13 phage antibody conjugated to HRP, followed by the addition of chromogenic agent o-phenylenediamine in 10% hydrogen peroxide. Relative binding strengths of the phage were determined by absorbance measurements at 490 nm using a microtiter plate reader.
The SCX16S library (described in Example 1) was screened for binding to polyurethane. Phage were detected, isolated, amplified, and sequenced as described in Example 2.

[6] = 1.0 mg/ml coating, overnight incubation at 37° C.
[7] = coated vs untreated polystyrene

## CGSSLVGLHSYWSSPFF (Polystyrene-binding peptide 117) [SEQ ID NO:117]
[1]
  mean adhesion force: approximately 300 pN

## FFPYSHLGVLSSG-PEG (PEG conjugated; Polystyrene-binding peptide 104) [SEQ ID NO:104, multi-functional peptide or interfacial biomaterial (IFBM) with PEG cell-repelling segment]
[2]; [6]
  cell morphology and attachment on treated polystyrene: maintain a round morphology and are not tightly adhered to the surface
[2]; [7]
  cell adhesion (cell counting): substantially lessened
  cell number (cell counting): dramatically reduced
[3]; [6]
  cell morphology and attachment on treated polystyrene: maintain a round morphology and are not tightly adhered to the surface
[3]; [7]
  cell adhesion (cell counting): substantially lessened
  cell number (cell counting): dramatically reduced

## FLSFVFPASAWGGSSGRGD [SEQ ID NO:72]
[4]
  cell adhesion and spreading: increased cell adhesion and cell spreading

## SCSVYDHKIGRDSFYSGCS (Chondrocyte-binding peptide 101) [SEQ ID NO:101]
Human chondrocytes
  preference for chondrocytes over endothelial cells: greater than 10 fold

## SCYVNGHNSVWVVVFWGVS (Polyurethane-binding peptide 1) [SEQ ID NO:23]
[5]
  specific binding to polyurethane: specifically binds
